Measured values from BindingDB's records for doi:10.1021/jm010237l (Abbott Laboratories, 2001).

What follows are compounds tested against Endothelin receptor type B (Sus scrofa) (UniProt P35463) (assay: Binding affinity against endothelin B receptor in porcine cerebellar tissue).
Chain of Endothelin receptor type B (Sus scrofa) (P35463 whole entry, looked up): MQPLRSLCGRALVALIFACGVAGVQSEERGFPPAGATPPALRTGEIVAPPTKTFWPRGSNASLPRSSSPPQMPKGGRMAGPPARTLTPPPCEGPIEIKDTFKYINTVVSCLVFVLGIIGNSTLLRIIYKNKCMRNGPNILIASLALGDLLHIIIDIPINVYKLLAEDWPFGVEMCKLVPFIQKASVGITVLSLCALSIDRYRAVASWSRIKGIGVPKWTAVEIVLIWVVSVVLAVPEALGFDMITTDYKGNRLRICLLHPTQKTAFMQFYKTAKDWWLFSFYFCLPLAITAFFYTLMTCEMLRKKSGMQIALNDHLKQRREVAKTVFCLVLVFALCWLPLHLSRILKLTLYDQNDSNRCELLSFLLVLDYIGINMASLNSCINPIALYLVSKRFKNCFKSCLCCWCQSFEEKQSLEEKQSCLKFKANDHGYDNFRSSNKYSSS

In order of rising IC50:
1. CCCCN(CCCC)C(=O)CN1C[C@H](c2ccc3c(c2)OCO3)[C@@H](C(=O)O)[C@@H]1c1ccc(OC)c(F)c1 [4-Benzo[1,3]dioxol-5-yl-1-dibutylcarbamoylmethyl-2-(3-fluoro-4-methoxy-phenyl)-pyrrolidine-3-carboxylic acid]  30 nM
2. CCCCN(CCCC)C(=O)CN1C[C@H](c2ccc3c(c2)OCO3)[C@@H](C(=O)O)[C@@H]1c1ccc(OC)c(OC)c1 [4-Benzo[1,3]dioxol-5-yl-1-dibutylcarbamoylmethyl-2-(3,4-dimethoxy-phenyl)-pyrrolidine-3-carboxylic acid]  300 nM
3. CCCCN(CCCC)C(=O)CN1C[C@H](c2ccc3c(c2)OCC3)[C@@H](C(=O)O)[C@@H]1c1ccc(OC)cc1 [1-Dibutylcarbamoylmethyl-4-(2,3-dihydro-benzofuran-6-yl)-2-(4-methoxy-phenyl)-pyrrolidine-3-carboxylic acid]  960 nM
4. CCCCN(CCCC)C(=O)CN1C[C@H](c2ccc3c(c2)OCO3)[C@@H](C(=O)O)[C@@H]1c1ccc(F)c(F)c1 [4-Benzo[1,3]dioxol-5-yl-1-dibutylcarbamoylmethyl-2-(3,4-difluoro-phenyl)-pyrrolidine-3-carboxylic acid]  1040 nM
5. CCCCN(CCCC)C(=O)CN1C[C@H](c2ccc3c(c2)OCO3)[C@@H](C(=O)O)[C@@H]1c1ccc(CCC)cc1 [4-Benzo[1,3]dioxol-5-yl-1-dibutylcarbamoylmethyl-2-(4-propyl-phenyl)-pyrrolidine-3-carboxylic acid]  1130 nM
6. CCCCN(CCCC)C(=O)CN1C[C@H](c2ccc3c(c2)OCO3)[C@@H](C(=O)O)[C@@H]1c1ccc(CC)cc1 [4-Benzo[1,3]dioxol-5-yl-1-dibutylcarbamoylmethyl-2-(4-ethyl-phenyl)-pyrrolidine-3-carboxylic acid]  1300 nM
7. CCCCN(CCCC)C(=O)CN1C[C@H](c2ccc3c(c2)OCO3)[C@@H](C(=O)O)[C@@H]1c1ccc(C)cc1 [4-Benzo[1,3]dioxol-5-yl-1-dibutylcarbamoylmethyl-2-p-tolyl-pyrrolidine-3-carboxylic acid]  2140 nM
8. CCCCN(CCCC)C(=O)CN1C[C@H](c2ccc3c(c2)CCO3)[C@@H](C(=O)O)[C@@H]1c1ccc(OC)cc1 [(2R,3R,4S)-1-Dibutylcarbamoylmethyl-4-(2,3-dihydro-benzofuran-5-yl)-2-(4-methoxy-phenyl)-pyrrolidine-3-carboxylic acid]  2670 nM
9. CCCCN(CCCC)C(=O)CN1C[C@H](c2ccc3occc3c2)[C@@H](C(=O)O)[C@@H]1c1ccc(OC)cc1 [4-Benzofuran-5-yl-1-dibutylcarbamoylmethyl-2-(4-methoxy-phenyl)-pyrrolidine-3-carboxylic acid]  5080 nM
10. CCCCN(CCCC)C(=O)CN1C[C@H](c2ccc3c(c2)OCCO3)[C@@H](C(=O)O)[C@@H]1c1ccc(CC)cc1 [1-Dibutylcarbamoylmethyl-4-(2,3-dihydro-benzo[1,4]dioxin-6-yl)-2-(4-ethyl-phenyl)-pyrrolidine-3-carboxylic acid]  7700 nM
11. CCCCN(CCCC)C(=O)CN1C[C@H](c2ccc3c(c2)CCO3)[C@@H](C(=O)O)[C@@H]1c1ccc(CC)cc1 [1-Dibutylcarbamoylmethyl-4-(2,3-dihydro-benzofuran-5-yl)-2-(4-ethyl-phenyl)-pyrrolidine-3-carboxylic acid]  8130 nM
12. CCCCN(CCCC)C(=O)CN1C[C@H](c2ccc3c(c2)CCO3)[C@@H](C(=O)O)[C@@H]1c1ccc(C)cc1 [1-Dibutylcarbamoylmethyl-4-(2,3-dihydro-benzofuran-5-yl)-2-p-tolyl-pyrrolidine-3-carboxylic acid]  12000 nM
13. CCCCN(CCCC)C(=O)CN1C[C@H](c2ccc3c(c2)OCO3)[C@@H](C(=O)O)[C@@H]1c1ccc(C(F)(F)F)cc1 [4-Benzo[1,3]dioxol-5-yl-1-dibutylcarbamoylmethyl-2-(4-trifluoromethyl-phenyl)-pyrrolidine-3-carboxylic acid]  14300 nM
